Assay results: US20190133122A1, “FUNGICIDAL OR BACTERICIDAL COMPOSITION AND METHOD FOR CONTROLLING DISEASE” (Nissan Chemical Corporation, priority 2016, published 2019)
Counter-ions that a name gives are not always drawn.

The compounds below were run on cucumber gray mold fungus (Botrytis cinerea) (assay: Preventive test against gray mold (sprayed cucumber cotyledon, cut leaf inoculated)). Settings: 1 ppm, active ingredient B alone; cucumber leaf, 20° C., 3 days after inoculation.
Format: in vivo
Description: Such an agent was diluted with water to a predetermined concentration to obtain a test solution. Then, cucumber (variety: Sagami-hanjiro) was planted in a plastic pot of 90 cm^3, and in the cotyledon stage, 5 ml of the obtained test solution, was sprayed by a spray gun and air-dried. Thereafter, the treated leaf was cut off and placed in a plastic container which filled approximately 0.5 cm in depth water. A suspension of conidia of cucumber gray mold fungus (Botrytis cinerea) and a dissolved PDA culture medium were mixed at a ratio of 1:1 (mass ratio), and the mixture was dropped to inoculate the treated leaf with 30 μl. After the inoculation, the plastic container was sealed and left at 20° C. for 3 days, the ratio of the formed lesion occupying the inoculated leaf was measured, and the preventive value (observed value) was calculated in accordance with the following calculation formula.
Preventive value=[1−(treated plot lesion area ratio/untreated plot lesion area ratio)]×100
Further, from the preventive value at each agent concentration, a theoretical value expected by treatment of the mixing (theoretical value) was calculated by using the Colby method (Colby S. R. 1967, Weeds 15, 20-22), in order to analyze synergy. The calculation method is as follows.
X: preventive value of A agent (test solution obtained from active ingredient A) at x concentration
Y: preventive value of B agent (test solution obtained from active ingredient B) at y concentration
E: theoretical value expected by treatment of the mixture of A agent and B agent.
In the observed value and the theoretical value, calculated as the above, the obtained result is analyzed to be synergy if the observed value is larger than the theoretical value, to be antagonism if the theoretical value is larger than the observed value, and to be an additive effect if the observed value and the theoretical value are the same.
In the case of CON(C(=O)c1cn(C)nc1C(F)F)C(C)Cc1c(Cl)cc(Cl)cc1Cl (stereo not shown) [Compound No. C49, pydiflumetofen], the Preventive value is reported as 45.
Work on O=C(Nc1ccccc1-c1ccc(F)c(F)c1)c1nccnc1C(F)(F)F [Compound No. C50, pyraziflumid] yielded a Preventive value of 70.

Same assay, conditions: 5 ppm, active ingredient B alone; cucumber leaf, 20° C., 3 days after inoculation
C=CCSC(=O)n1c(N)c(-c2ccccc2C)c(=O)n1C(C)C [Compound No. H50, fenpyrazamine] gave a Preventive value of 56.

Same assay, conditions: 10 ppm, active ingredient B alone; cucumber leaf, 20° C., 3 days after inoculation
Compound CNC(=O)/C(=N/OC)c1ccccc1CO/N=C(C)/C=C/c1c(Cl)cccc1Cl [C25, fenaminstrobin] has a Preventive value of 55.
CC(O)(Cn1cncn1)c1ccc(Oc2ccc(Cl)cc2)cc1C(F)(F)F (stereo not shown) [H51, mefentrifluconazole] showed a Preventive value of 53.
In the case of CC1(C)N=C(c2cnc3ccccc3c2)c2ccccc2C1(F)F [M20, quinofumelin], the Preventive value is reported as 60.

Same assay, conditions: 100 ppm, active ingredient B alone; cucumber leaf, 20° C., 3 days after inoculation
COCC(=O)N(c1c(C)cccc1C)[C@H](C)C(=O)OC [A05, metalaxyl-M] showed a Preventive value of 5.
CO/C=C(/C(=O)OC)c1ccccc1CO/N=C(C)/C=C/c1ccc(Cl)cc1 [C22, enoxastrobin] showed a Preventive value of 85.
COC(=O)N(OC)c1ccccc1COc1nc(Cl)c(Cl)cc1Cl [C38, triclopyricarb] was tested, and the Preventive value was 69.
With C[C@H]1O[C@H](O[C@H]2[C@H](O)[C@@H](O)[C@@H](O)[C@H](O)[C@@H]2O)[C@@H](N)C[C@@H]1NC(=N)C(=O)O [D05, kasugamycin] the Preventive value was 28.
With CN1OC(c2ccc(Cl)cc2)CC1(C)c1cccnc1 (stereo not shown) [H33, pyrisoxazole] the Preventive value was 9.
C#CCOc1ccc(CCNC(=O)C(OCC#C)c2ccc(Cl)cc2)cc1OC (stereo not shown) [I08, mandipropamid] showed a Preventive value of 10.
[Cl-].[Cu+2].[Cu+2].[OH-].[OH-].[OH-] [L08, copper oxychloride] showed a Preventive value of 5.
Work on Cn1c(=O)c2sc3c(=O)n(C)c(=O)c3sc2c1=O [M23, dipymetitrone] yielded a Preventive value of 54.
In the case of CCSS(=O)(=O)CC [M34, ethylicin], the Preventive value is reported as 10.
With Bacillus subtilis D747 strain [G13] the Preventive value was 28.
With basic copper sulfate [L10] the Preventive value was 18.
In the case of fosetyl-aluminium [M08], the Preventive value is reported as 10.

Same assay, conditions: Botrytis cinerea, 72 h, read-out: Preventive value
In the case of COCC(=O)N(c1c(C)cccc1C)N1CCOC1=O [A07, oxadixyl], the pest or weed control at 100 ppm is reported as 10%.
Cc1cccc(-n2nnn(C)c2=O)c1COc1ccn(-c2ccc(Cl)cc2)n1 [C51, 1-(2-[([1-(4-chlorophenyl)-1H-pyrazol-3-yl]oxy)-methyl]-3-methylphenyl)-4-methyl-1,4-dihydro-5H-tetrazol-5-one] showed a pest or weed control at 100 ppm of 48%.
With Clc1ccc(CSC(Cn2cncn2)=Nc2ccc(Cl)cc2Cl)cc1 [H21, imibenconazole] the pest or weed control at 10 ppm was 20%.
Work on S=C(S)NCCNC(=S)S [L35, zineb] yielded a pest or weed control at 100 ppm of 23%.
Compound Cc1nc2c(F)c(F)ccc2cc1Oc1cccc(F)c1C(C)(C)O [M21, 2-(2-[(7,8-difluoro-2-methylquinolin-3-yl)oxy]-6-fluoro-phenyl)propan-2-ol] has a pest or weed control at 1 ppm of 65%.

Same assay, conditions: Botrytis cinerea, 72 h; 10 ppm, active ingredient B alone; cucumber leaf, 20° C., 3 days after inoculation; read-out: Preventive value
COC(=O)Nc1nc2ccccc2[nH]1 [B02, carbendazim] gave a pest or weed control at 10 ppm of 85%.
Work on Cc1nnc(Cl)c(-c2c(F)cccc2F)c1-c1ccccc1 [M44, 3-chloro-4-(2,6-difluorophenyl)-6-methyl-5-phenyl-pyridazine] yielded a pest or weed control at 10 ppm of 28%.

Same assay, conditions: Botrytis cinerea, 72 h; 100 ppm, active ingredient B alone; cucumber leaf, 20° C., 3 days after inoculation; read-out: Preventive value
In the case of Cc1cc(O)no1 [A10, hymexazol], the pest or weed control at 100 ppm is reported as 10%.
Work on CCC(C)(NC(=O)c1cc(Cl)c(C)c(Cl)c1)C(=O)CCl (stereo not shown) [B08, zoxamide] yielded a pest or weed control at 100 ppm of 15%.
For Cc1ccc(-c2c(Cl)nc(C#N)n2S(=O)(=O)N(C)C)cc1 [C41, cyazofamid], the pest or weed control at 100 ppm was 10%.
In the case of [H]/N=C(/N)N[C@H]1[C@H](O)[C@@H](O)[C@H](O[C@@H]2O[C@@H](C)[C@](O)(C=O)[C@H]2O[C@@H]2O[C@@H](CO)[C@H](O)[C@@H](O)[C@@H]2NC)[C@@H](N/C(N)=N\[H])[C@@H]1O [D06, streptomycin], the pest or weed control at 100 ppm is reported as 13%.
CCCOC(=O)NCCCN(C)C [G12, propamocarb hydrochloride] showed a pest or weed control at 100 ppm of 15%.
Compound CCCC1COC(Cn2cncn2)(c2ccc(Cl)cc2Cl)O1 (stereo not shown) [H30, propiconazole] has a pest or weed control at 100 ppm of 38%.
Compound CC(C)(C)C(=O)C(Oc1ccc(Cl)cc1)n1cncn1 (stereo not shown) [H37, triadimefon] has a pest or weed control at 100 ppm of 38%.
CCCOC/C(=N\c1ccc(Cl)cc1C(F)(F)F)n1ccnc1 [H39, triflumizole] showed a pest or weed control at 100 ppm of 10%.
For OCC1=C[C@H](N[C@H]2C[C@H](CO)[C@@H](O[C@@H]3O[C@H](CO)[C@@H](O)[C@H](O)[C@H]3O)[C@H](O)[C@H]2O)[C@H](O)[C@@H](O)[C@@H]1O [I01, validamycin], the pest or weed control at 100 ppm was 10%.
Compound COc1ccc(C(=CC(=O)N2CCOCC2)c2ccc(Cl)cc2)cc1OC [I05, dimethomorph] has a pest or weed control at 100 ppm of 18%.
Work on CN(C)C(=S)SSC(=S)N(C)C [L21, thiram] yielded a pest or weed control at 100 ppm of 28%.
CCNC(=O)NC(=O)/C(C#N)=N/OC [M02, cymoxanil] gave a pest or weed control at 100 ppm of 13%.
